Data taken from publication PMC6691788, “Design and synthesis of phthalazine-based compounds as potent anticancer agents with potential antiangiogenic activity via VEGFR-2 inhibition” (Journal of Enzyme Inhibition and Medicinal Chemistry, 2019).

How the values were obtained:
Experiment in all cases: NCI 60 cell panel SRB screen
[1] = tested on: CCRF-CEM; assay type: cell-based, human
[2] = tested on: RPMI-8226; assay type: cell-based; conditions: Homo sapiens
[3] = tested on: SR; assay type: cell-based; conditions: Homo sapiens
[4] = tested on: A549/ATCC; assay type: cell-based; conditions: Homo sapiens
[5] = tested on: HOP-92; assay type: cell-based; conditions: Homo sapiens
[6] = tested on: NCI-H226; assay type: cell-based; conditions: Homo sapiens
[7] = tested on: NCI-H23; assay type: cell-based; conditions: Homo sapiens
[8] = tested on: NCI-H460; assay type: cell-based; conditions: Homo sapiens
[9] = tested on: HCC-2998; assay type: cell-based; conditions: Homo sapiens
[10] = tested on: HCT-116; assay type: cell-based; conditions: Homo sapiens
[11] = tested on: KM12; assay type: cell-based; conditions: Homo sapiens
[12] = tested on: SW-620; assay type: cell-based; conditions: Homo sapiens
[13] = tested on: SNB-19; assay type: cell-based; conditions: Homo sapiens
[14] = tested on: SNB-75; assay type: cell-based; conditions: Homo sapiens
[15] = tested on: U251; assay type: cell-based; conditions: Homo sapiens, U-251
[16] = tested on: MALME-3M; assay type: cell-based; conditions: Homo sapiens
[17] = tested on: M14; assay type: cell-based; conditions: Homo sapiens
[18] = tested on: SK-MEL-28; assay type: cell-based; conditions: Homo sapiens
[19] = tested on: SK-MEL-5; assay type: cell-based; conditions: Homo sapiens
[20] = tested on: OVCAR-5; assay type: cell-based; conditions: Homo sapiens
[21] = tested on: OVCAR-8; assay type: cell-based; conditions: Homo sapiens
[22] = tested on: NCI/ADR-RES; assay type: cell-based; conditions: Homo sapiens
[23] = tested on: SK-OV-3; assay type: cell-based; conditions: Homo sapiens
[24] = tested on: ACHN; assay type: cell-based; conditions: Homo sapiens
[25] = tested on: RXF 393; assay type: cell-based; conditions: Homo sapiens
[26] = tested on: SN12C; assay type: cell-based; conditions: Homo sapiens
[27] = tested on: TK-10; assay type: cell-based, human
[28] = 5 log dose, 48 h, read-out: LC50 (the source's name)
[29] = single dose 10 μM, read-out: percent cell growth promotion

With O=C(Nc1ccc(Cl)cc1)Nc1ccc(Nc2nncc3ccccc23)cc1 [Compound 6b, 1–(4-Chlorophenyl)-3–(4-(phthalazin-1-ylamino)phenyl)urea] the TGI ([1]; 5 log dose) was 17.0 µM, the GI50 ([1]; Homo sapiens, 5 log dose) was 2.57 µM and the CC50 ([1]; Homo sapiens, 5 log dose, 48 h, read-out: LC50 (the source's name)) was > 100 µM. It also gave an activity at 10 µM ([1]; Homo sapiens, single dose 10 μM, read-out: percent cell growth promotion) of 13.1%, a GI50 ([2]; RPMI-8226, 5 log dose) of 2.5 µM and an IC (TGI) ([2]; RPMI-8226, 5 log dose) of 8.75 µM. For the same molecule, the CC50 ([2]; RPMI-8226, 5 log dose, 48 h, read-out: LC50 (the source's name)) was > 100 µM, the activity at 10 µM ([2]; RPMI-8226, single dose 10 μM, read-out: percent cell growth promotion) was 8.62% and the GI50 ([3]; 5 log dose) was 3.89 µM. For the same molecule, the IC (TGI) ([3]; 5 log dose) was 23.3 µM, the CC50 [3, 28] was > 100 µM and the activity at 10 µM [3, 29] was 17.5%. For the same molecule, the GI50 ([4]; 5 log dose) was 3.03 µM, the IC (TGI) ([4]; 5 log dose) was 19.3 µM and the LC50 (concentration killing 50% of cells) ([4]; 5 log dose, 48 h) was > 100 µM. The activity at 10 µM [4, 29] was 20.1%, the GI50 ([5]; HOP-92, 5 log dose) was 2.55 µM and the IC (TGI) ([5]; HOP-92, 5 log dose) was 7.26 µM. For the same molecule, the CC50 ([5]; HOP-92, 5 log dose, 48 h, read-out: LC50 (the source's name)) was > 100 µM, the activity at 10 µM ([5]; HOP-92, single dose 10 μM, read-out: percent cell growth promotion) was 38.7% and the GI50 ([6]; NCI-H226, 5 log dose) was 2.46 µM. It also gave an IC (TGI) ([6]; NCI-H226, 5 log dose) of 12.5 µM, a CC50 ([6]; NCI-H226, 5 log dose, 48 h, read-out: LC50 (the source's name)) of 43.2 µM and an activity at 10 µM ([6]; NCI-H226, single dose 10 μM, read-out: percent cell growth promotion) of 33.3%. It also gave a GI50 ([7]; NCI-H23, 5 log dose) of 3.07 µM, an IC (TGI) ([7]; NCI-H23, 5 log dose) of 14.4 µM and a CC50 ([7]; NCI-H23, 5 log dose, 48 h, read-out: LC50 (the source's name)) of 71.8 µM. It also gave an activity at 10 µM ([7]; NCI-H23, single dose 10 μM, read-out: percent cell growth promotion) of 12.5%, a GI50 ([8]; NCI-H460, 5 log dose) of 2.91 µM and an IC (TGI) ([8]; NCI-H460, 5 log dose) of 11.9 µM. The LC50 (concentration causing 50% cell kill) ([8]; NCI-H460, 5 log dose, 48 h) was 56.8 µM, the activity at 10 µM ([8]; NCI-H460, single dose 10 μM, read-out: percent cell growth promotion) was 9.89% and the GI50 ([9]; HCC-2998, 5 log dose) was 3.26 µM. The IC (TGI) ([9]; HCC-2998, 5 log dose) was 19.8 µM, the LC50 (50% lethal concentration) ([9]; HCC-2998, 5 log dose, 48 h) was > 100 µM and the activity at 10 µM ([9]; HCC-2998, single dose 10 μM, read-out: percent cell growth promotion) was 30.7%. It also gave a GI50 ([10]; HCT-116, 5 log dose) of 2.46 µM, an IC (TGI) ([10]; HCT-116, 5 log dose) of 12 µM and an LC50 (lethal concentration 50%) ([10]; HCT-116, 5 log dose, 48 h) of 37.4 µM. It also gave an activity at 10 µM ([10]; HCT-116, single dose 10 μM, read-out: percent cell growth promotion) of 15.2%, a GI50 ([11]; KM12, 5 log dose) of 1.47 µM and an IC (TGI) ([11]; KM12, 5 log dose) of 11.4 µM. The CC50 ([11]; KM12, 5 log dose, 48 h, read-out: LC50 (the source's name)) was 45 µM, the activity at 10 µM ([11]; KM12, single dose 10 μM, read-out: percent cell growth promotion) was 18.9% and the GI50 ([12]; SW-620, 5 log dose) was 3.16 µM. It also gave an IC (TGI) ([12]; SW-620, 5 log dose) of 18.6 µM, a CC50 ([12]; SW-620, 5 log dose, 48 h, read-out: LC50 (the source's name)) of 81.8 µM and an activity at 10 µM ([12]; SW-620, single dose 10 μM, read-out: percent cell growth promotion) of 27%. For the same molecule, the GI50 ([13]; SNB-19, 5 log dose) was 3.67 µM, the IC (TGI) ([13]; SNB-19, 5 log dose) was 19 µM and the CC50 ([13]; SNB-19, 5 log dose, 48 h, read-out: LC50 (the source's name)) was > 100 µM. It also gave an activity at 10 µM ([13]; SNB-19, single dose 10 μM, read-out: percent cell growth promotion) of 33%, a GI50 ([14]; SNB-75, 5 log dose) of 1.88 µM and an IC (TGI) ([14]; SNB-75, 5 log dose) of 8.67 µM. For the same molecule, the LC50 (concentration killing 50% of cells) ([14]; SNB-75, 5 log dose, 48 h) was 31.8 µM, the activity at 10 µM ([14]; SNB-75, single dose 10 μM, read-out: percent cell growth promotion) was 46.2% and the GI50 ([15]; U251, 5 log dose) was 2.86 µM. The IC (TGI) ([15]; U251, 5 log dose) was 10.3 µM, the CC50 ([15]; U251, 5 log dose, 48 h, read-out: LC50 (the source's name)) was 37.2 µM and the activity at 10 µM ([15]; U251, single dose 10 μM, read-out: percent cell growth promotion) was 18.3%. It also gave a GI50 ([16]; Malme-3M) of 3.94 µM, an IC (TGI) ([16]; Malme-3M, read-out: TGI) of 16.5 µM and an activity at 10 µM ([16]; Malme-3M, read-out: percent cell growth promotion) of 38.5%. The CC50 ([16]; MALME-3M, 5 log dose, 48 h, read-out: LC50 (the source's name)) was 50 µM, the GI50 ([17]; M14) was 1.52 µM and the IC (TGI) ([17]; M14, read-out: TGI) was 11.5 µM. It also gave an activity at 10 µM ([17]; M14, read-out: percent cell growth promotion) of 19.3%, a CC50 ([17]; M14, 5 log dose, 48 h, read-out: LC50 (the source's name)) of 40.7 µM and a GI50 ([18]; SK-MEL-28) of 3.04 µM. The IC (TGI) ([18]; SK-MEL-28, read-out: TGI) was 12.8 µM, the activity at 10 µM ([18]; SK-MEL-28, read-out: percent cell growth promotion) was 44.1% and the CC50 ([18]; SK-MEL-28, 5 log dose, 48 h, read-out: LC50 (the source's name)) was 51.5 µM. The GI50 ([19]; SK-MEL-5) was 2.31 µM, the IC (TGI) ([19]; SK-MEL-5, read-out: TGI) was 6.82 µM and the activity at 10 µM ([19]; SK-MEL-5, read-out: percent cell growth promotion) was 7.12%. It also gave a CC50 ([19]; SK-MEL-5, 5 log dose, 48 h, read-out: LC50 (the source's name)) of 24.7 µM, a GI50 ([20]; OVCAR-5, 5 log dose) of 4.15 µM and an IC (TGI) ([20]; OVCAR-5, 5 log dose) of 34.3 µM. The CC50 ([20]; OVCAR-5, 5 log dose, 48 h, read-out: LC50 (the source's name)) was > 100 µM, the activity at 10 µM ([20]; OVCAR-5, single dose 10 μM, read-out: percent cell growth promotion) was 85.6% and the GI50 ([21]; OVCAR-8, 5 log dose) was 3.12 µM. For the same molecule, the IC (TGI) ([21]; OVCAR-8, 5 log dose) was 12.4 µM, the CC50 ([21]; OVCAR-8, 5 log dose, 48 h, read-out: LC50 (the source's name)) was > 100 µM and the activity at 10 µM ([21]; OVCAR-8, single dose 10 μM, read-out: percent cell growth promotion) was 18.2%. The GI50 ([22]; 5 log dose) was 2.79 µM, the IC (TGI) ([22]; 5 log dose) was 26.3 µM and the CC50 [22, 28] was > 100 µM. The activity at 10 µM [22, 29] was 36.2%, the GI50 ([23]; SK-OV-3, 5 log dose) was 3.05 µM and the IC (TGI) ([23]; SK-OV-3, 5 log dose) was 17.7 µM. For the same molecule, the CC50 ([23]; SK-OV-3, 5 log dose, 48 h, read-out: LC50 (the source's name)) was > 100 µM, the activity at 10 µM ([23]; SK-OV-3, single dose 10 μM, read-out: percent cell growth promotion) was 38.2% and the GI50 ([24]; 5 log dose) was 1.12 µM. The IC (TGI) ([24]; 5 log dose) was 7.12 µM, the CC50 [24, 28] was > 100 µM and the activity at 10 µM [24, 29] was 22.4%. The GI50 ([25]; RXF 393, 5 log dose) was 4.28 µM, the IC (TGI) ([25]; RXF 393, 5 log dose) was 21.4 µM and the CC50 ([25]; RXF 393, 5 log dose, 48 h, read-out: LC50 (the source's name)) was > 100 µM. For the same molecule, the activity at 10 µM ([25]; RXF 393, single dose 10 μM, read-out: percent cell growth promotion) was 65.7%, the GI50 ([26]; 5 log dose) was 4.58 µM and the IC (TGI) ([26]; 5 log dose) was 37.2 µM. For the same molecule, the CC50 [26, 28] was > 100 µM, the activity at 10 µM [26, 29] was 26.4% and the GI50 ([27]; Homo sapiens, TK-10, 5 log dose) was 5.03 µM. For the same molecule, the CC50 ([27]; Homo sapiens, TK-10, 5 log dose, 48 h, read-out: LC50 (the source's name)) was > 100 µM, the activity at 10 µM ([27]; Homo sapiens, TK-10, single dose 10 μM, read-out: percent cell growth promotion) was 32% and the TGI ([27]; TK-10, 5 log dose) was 24.4 µM.
